Data as given in patent publication US20220378954A1, “METHODS FOR RADIOLABELLING GRPR ANTAGONISTS AND THEIR KITS” (NOVARTIS AG, priority 2019, published 2022).
“And” between values parts separate entries of the source, which are not always exact repeats. Equal values may be shown once.

Assay: Peptide adhesion tests (non-specific binding of NeoB to glass and plastic surfaces)
Type: physicochemical
Details: final formulation: NeoB 50 μg, Mannitol 20 mg, Kolliphor HS15 500 μg, Gentisic acid 200 μg; three independent radiolabelling tests; adhesion to the glass

With `CC(C)CC(CC(C)C)NC(=O)[C@H](Cc1cnc[nH]1)NC(=O)CNC(=O)[C@@H](NC(=O)[C@H](C)NC(=O)[C@H](Cc1c[nH]c2ccccc12)NC(=O)[C@H](CCC(N)=O)NC(=O)[C@@H](Cc1ccccc1)NC(=O)COCC(=O)Nc1ccc(CNC(=O)CN2CCN(CC(=O)O)CCN(CC(=O)O)CCN(CC(=O)O)CC2)cc1)C(C)C` [NeoB] the “Peptide Adhesion (%)” value was 4.8% and 5.0% and 5.8%.
